Data reported in EP0155825A2, “Novel choline derivatives” (NITTO BOSEKI CO., LTD., priority 1984, dated 1985).

Test: Stability against non-enzymatic hydrolysis in buffer
Assay type: physicochemical
Conditions: 1/15 molar phosphate buffer (pH 8.20) at 37°C for 90 minutes

## C[N+](C)(C)CCOC(=O)c1ccc(O)c(O)c1.[I-] [DHBCI, 3,4-dihydroxybenzoylcholine iodide]
  non-enzymatic hydrolysis: substantially no hydrolysis
